Columns and labels:
fluorophore blinking = assay: Sequencing-by-synthesis assay, interpulse duration / very short dark periods (blinkiness); format: biochemical; conditions: 3 μM and 5 μM of compound compared with 1 mM of the charged nitrophenyl photoprotective moiety; FIG. 7
Experimental: One measure of photoprotective benefit is monitoring “blinkiness” of dyes in a reaction mixture. For example, in a reaction in which dye-labeled reactants are being observed as they cyclically interact with an unlabeled reactant, the time between interaction events is a length of time during which no dye is present, or a “dark” period. Given certain reaction parameters, e.g., diffusion rates and concentration of the labeled reactant, a distribution of dark periods is measured that centers around a value that is an average time between interaction events. This distribution curve can be perturbed by dye blinking since such blinking introduces a very brief dark period during an interaction event. These blinking-induced dark periods introduce an aberrant peak in the dark period distribution resulting in a peak that is outside of the normal distribution and representing dark periods that are too short to be explained by the reaction parameters. Blinkiness is increased when a dye is excited to the triplet state and there is insufficient photo-induced damage mitigation to quickly return it to a non-triplet state. […]
Experiments were conducted using a single-molecule, real-time (SMRT®) sequencing instrument. […] Sequencing was initiated and reactions were monitored in real time. The fluorescence emissions were recorded, processed, and analyzed. […]

phi29 polymerase enzyme = assay: Sequencing-by-synthesis assay, polymerase survival as a function of number of bases sequenced; format: biochemical
Source text: In various embodiments, the amount of photo-induced damage that occurs in a reaction mixture of the invention is detectably less than the amount of photo-induced damage that occurs in the absence of a photoprotective additive according to Formula I or Formula II. Photo-induced damage can be measured in different ways, depending on the particular analytical reaction. One way is by monitoring blinkiness of a fluorescent dye in the reaction, as further explained above. In other embodiments, the amount of photo-induced damage is measured as a length of time a reaction can proceed, e.g., the survival time for an enzyme catalyzing a reaction. For example, in a nucleic acid sequencing-by-synthesis reaction, a proxy for the level of photo-induced damage can be the length of the nascent strand synthesized and/or the length of the sequencing read generated. […]
Experiments were conducted using a single-molecule, real-time (SMRT®) sequencing instrument. […] Sequencing was initiated and reactions were monitored in real time. The fluorescence emissions were recorded, processed, and analyzed.
Further analysis of the fluorescent emissions included measurement of polymerase enzyme survival in the reaction as a function of number of bases sequenced. Another measure of photo-induced damage was the average read length produced in the sequencing reaction.

For O=C(CNc1cccc([N+](=O)[O-])c1)NCCCCCCOP(=O)(O)OP(=O)(O)OP(=O)(O)OP(=O)(O)OP(=O)(O)O [TSQ001-6C-5P], the “reducing the incidence of very short dark periods (proxy for blinkiness)” value (fluorophore blinking) was “as effective”, the “increasing survival of a polymerase enzyme” value (phi29 polymerase enzyme; 1.5, 3, and 5 μM of compound compared with 1 mM of the charged nitrophenyl photoprotective moiety, FIG. 8) was “more effective” and the “polymerase survival in a sequencing-by-synthesis reaction is increased” value (phi29 polymerase enzyme; as compared to the photoprotective moiety alone, by various measures (data not shown)) was 15-25%.

Source: US20140093935A1, “CHARGED TRIPLET-STATE QUENCHERS FOR MITIGATION OF PHOTO-INDUCED DAMAGE” (Pacific Biosciences of California, Inc., priority 2012, published 2014)
